Broadly, the IC50 is the concentration needed to halve the response being measured. Read a low IC50 as greater potency.

This assay deals with Poly [ADP-ribose] polymerase 1 (Homo sapiens, UniProt P09874). Description: Enzyme Inhibitory Assay: The activity of the compounds according to the present invention to inhibit the PARP-1 enzyme was examined using a PARP Assay kit (4671-096-K) purchased from Trevigen. The assay was performed following a modified previously reported method by Lee et al [Methods Find, Exp. Clin. Pharmacol., 27, 617-622, 2005].Histone was coated on 384-well plate, which is a small volume PS plate (784101) of Greiner Bio-One, and left at 25 C. for 2 hours. After that, the plate was rinsed four times with PBS (7.5 mM Na2HPO4, 2.5 mM NaH2PO4, 145 mM NaCl, pH 7.4), and in order to prevent non-specific reaction, the Strep-diluent (provided from kit of Trevigen) was added and left at 25 C. for one hour. After one hour, the plate was again rinsed with PBS four times, and the compounds of the Examples in various concentrations were put into reactant containing PARP-1 enzyme (0.12 unit/well), 2x PARP cocktail.
Poly [ADP-ribose] polymerase 1, sequence (P09874 whole entry): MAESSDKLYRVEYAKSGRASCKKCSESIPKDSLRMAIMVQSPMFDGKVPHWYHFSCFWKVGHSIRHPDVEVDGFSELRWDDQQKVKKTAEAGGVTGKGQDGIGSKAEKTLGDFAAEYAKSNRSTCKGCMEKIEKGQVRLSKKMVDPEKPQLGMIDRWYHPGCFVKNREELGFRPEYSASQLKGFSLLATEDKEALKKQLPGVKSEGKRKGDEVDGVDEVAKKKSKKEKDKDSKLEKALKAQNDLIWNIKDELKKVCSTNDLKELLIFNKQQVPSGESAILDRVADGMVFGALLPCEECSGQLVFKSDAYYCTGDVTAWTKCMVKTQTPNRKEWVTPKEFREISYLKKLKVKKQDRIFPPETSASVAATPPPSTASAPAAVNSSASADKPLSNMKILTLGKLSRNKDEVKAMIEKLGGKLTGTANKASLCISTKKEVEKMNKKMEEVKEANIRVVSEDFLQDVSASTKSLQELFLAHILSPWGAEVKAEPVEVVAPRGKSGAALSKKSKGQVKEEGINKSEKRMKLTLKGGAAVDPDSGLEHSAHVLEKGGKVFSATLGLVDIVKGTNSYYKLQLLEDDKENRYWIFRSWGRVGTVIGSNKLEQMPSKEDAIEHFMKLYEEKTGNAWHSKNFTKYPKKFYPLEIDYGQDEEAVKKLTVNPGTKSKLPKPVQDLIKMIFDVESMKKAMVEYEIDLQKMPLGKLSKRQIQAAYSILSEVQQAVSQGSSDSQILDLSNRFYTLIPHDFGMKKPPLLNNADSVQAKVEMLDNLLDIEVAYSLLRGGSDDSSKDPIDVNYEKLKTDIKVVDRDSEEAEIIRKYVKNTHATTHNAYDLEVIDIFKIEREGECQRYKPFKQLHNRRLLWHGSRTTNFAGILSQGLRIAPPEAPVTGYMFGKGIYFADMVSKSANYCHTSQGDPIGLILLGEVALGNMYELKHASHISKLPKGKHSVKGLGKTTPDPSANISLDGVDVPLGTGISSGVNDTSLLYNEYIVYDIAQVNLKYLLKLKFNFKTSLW
On to `CN(C)CCOc1ccc2c3c(c(=O)[nH]c2c1)CCCN3`, for which the IC50 is 1620 nM.

Take `CN(C)Cc1cc(O)c2c3c(c(=O)[nH]c2c1)CCCN3`: the IC50 amounted to 750 nM.

In turn, `COc1cc(C[N+](C)(C)C2CCCC2)cc2[nH]c(=O)c3c(c12)NCCC3` had an IC50 of 290 nM.
